# Assay results: PMC8036666, “Biological and Physico-Chemical Characteristics of Arginine-Rich Peptide Gemini Surfactants with Lysine and Cystine Spacers” (International Journal of Molecular Sciences, 2021)
# Read-outs that look alike come from different tables or passages of the source. Where a SMILES comes first, the peptide text is derived from it. Bridges are numbered along the chain shown (N, C = ends). Roman numbers before positions name the chains, in order. Side-chain parts run from the residue outwards. [ ]: non-standard residue; d: D form. The star is where a group is joined. Myristoyl = CCCCCCCCCCCCCC(=O)*; Lauroyl = CCCCCCCCCCCC(=O)*; Decanoyl = CCCCCCCCCC(=O)*; Nle = CCCC[C@H](N)C(=O)O; Octanoyl = CCCCCCCC(=O)*
# Experiments:
# S. aureus ATCC 33591 = format: cell-based, Staphylococcus aureus; details: human serum 10% (v/v)
# Description: (§1) Minimal inhibitory concentrations of lipopeptides were determined in the presence of human serum to evaluate the effect of enzymatic degradation and protein binding of lipopeptides on antimicrobial activity. Serum concentrations were 1% and 10% (v/v). S. aureus (ATCC 33591), P. aeruginosa (ATCC 9027), and C. glabrata (ATCC 15126) were selected to this study.
# (§2) The MICs were determined by the broth microdilution method according to the Clinical and Laboratory Standard Institute guidelines. For this purpose, initial inoculums of bacteria (5 × 10^5 CFU/mL) in MHB and yeasts (2 × 10^3 CFU/mL) in RPMI-1640 with 2% D-glucose were exposed to the ranging concentration of lipopeptides (0.5–256 μg/mL) and incubated at 37 °C for 18 h and 24 h, respectively. The experiments were conducted on 96-well microtiter polystyrene plates (Kartell, Noviglio, Italy). The growth was assessed visually after incubation, and the MIC was assumed as the lowest peptide concentration at which a noticeable growth of microorganisms was inhibited. All experiments were conducted in triplicate.
# (§3) The MICs were determined in the presence of normal human serum (NHS; Sigma-Aldrich, Human Serum, Normal) in concentrations of 1 and 10% (v/v). NHS was stored frozen at −20 °C and thawed just before use. Microorganisms were cultivated as described in 3.4.1. Serial dilutions of compounds, inoculum density, medium, and incubation conditions were prepared as described in Section 3.4.2. Stock solutions of test compounds were prepared in appropriate culture medium.
# C. albicans ATCC 10231 = details: ATCC 10231, 24 h
# Description: (§4) The Acinetobacter baumannii ATCC BAA-1605, Enterococcus faecium ATCC 700221, Escherichia coli ML-35 ATCC 43827, Klebsiella aerogenes ATCC 13048, Klebsiella pneumoniae ATCC 700603, Pseudomonas aeruginosa ATCC 9027, Staphylococcus aureus ATCC 25923, Staphylococcus aureus ATCC 33591, Candida albicans ATCC 10231, Candida glabrata ATCC 15126, strains were acquired from the American Type Culture Collection (ATCC). All the strains were stored at −80 °C in Roti-Store cryo vials and before the tests were transferred into fresh Mueller–Hinton broth (MHB, Biocorp, Warsaw, Poland) for bacteria or RPMI-1640 (Sigma-Aldrich, Steinheim, Germany) for fungi and incubated for 24 h at 37 °C. Then, the cultures were seeded on the Mueller–Hinton agar (BioMaxima, Lublin, Poland) or Sabouraud dextrose agar (SDA, BioMaxima, Lublin, Poland) plates, respectively, and incubated as just mentioned. These agar cultures were used for further microbiological assays. Cell densities for all assays were adjusted spectrophotometrically (Multiskan GO Microplate Spectrophotometer, Thermo Fisher Scientific, Vantaa, Finland) at 600 and 530 nm for bacteria and fungi, respectively.
# as §2
# C. glabrata ATCC 15126 [1] = details: ATCC 15126, 24 h
# Description: as §4, §2
# [2] = system: Staphylococcus aureus ATCC 33591; details: ATCC 33591, 24 h
# Description: as §4, with “[…],” for “Poland) for bacteria or RPMI-1640 (Sigma-Aldrich,”, “Cell densities for all assays were adjusted spectrophotometrically (Multiskan GO Microplate Spectrophotometer, Thermo Fisher Scientific, Vantaa, Finland) at 600 and 530 nm for bacteria and fungi, respectively.” left out
# (§5) The MICs were determined by the broth microdilution method according to the Clinical and Laboratory Standard Institute guidelines. […] The experiments were conducted on 96-well microtiter polystyrene plates (Kartell, Noviglio, Italy). The growth was assessed visually after incubation, and the MIC was assumed as the lowest peptide concentration at which a noticeable growth of microorganisms was inhibited. All experiments were conducted in triplicate.
# [3] = system: Staphylococcus aureus ATCC 25923
# Description: as §4, §5
# [4] = system: Klebsiella pneumoniae ATCC 700603
# Description: as §4, §5
# [5] = system: Pseudomonas aeruginosa ATCC 9027; details: ATCC 9027, 24 h
# Description: as §4, §5
# [6] = system: Enterococcus faecium ATCC 700221; details: ATCC 700221, 24 h
# Description: as §4, §5
# [7] = system: Klebsiella aerogenes ATCC 13048; details: ATCC 13048, 24 h
# Description: as §4, §5
# [8] = system: Acinetobacter baumannii ATCC BAA 1605; details: ATCC BAA 1605, 24 h
# Description: as §4, §5
# P. aeruginosa ATCC 9027 = format: cell-based, Pseudomonas aeruginosa; details: human serum 10% (v/v)
# Description: as §1, §2, §3
# C. glabrata ATCC 15126 [9] = format: cell-based, Candida glabrata; details: human serum 10% (v/v)
# Description: as §1, §2, §3
# [10] = system: human red blood cells (hRBCs); experiment: Hemolysis assay; format: cell-based; details: red cells of human, 1 h
# Description: The hemolysis assay was performed by using the method reported previously. Fresh human red blood cells (hRBCs) with anticoagulant (EDTA) were rinsed three times with a PBS by centrifugation at 800× g for 10 min and diluted with PBS. The compounds were serially diluted on a 96-well microtiter polystyrene plate, and hRBCs were added up to a final volume of 100 μL. The compound concentration ranged between 0.5 and 256 μg/mL and the final hRBCs concentration was 4% (v/v). Controls for zero (blank) and 100% hemolysis consisted of hRBCs suspended in PBS and 1% of Triton-X 100 (Carl Roth GmbH, Karlsruhe, Germany), respectively. The plate was incubated for 1 h at 37 °C and then centrifuged (800× g, 10 min, 4 °C). Subsequently, the supernatant was […] to new microtiter plates, and the absorbance at 540 nm was measured (Multiskan GO Microplate Spectrophotometer, Thermo Fisher Scientific, Vantaa, Finland). All experiments were conducted in triplicate. HC50 was calculated using an ic50.tk tool. The protocol of the study was approved by the local Bioethics Committee at the Medical University of Gdańsk (NKBBN/262/2019, approval date: 10 June 2019).
MIC Staphylococcus aureus ATCC 25923 ([3]; planktonic culture) [µg/mL],MIC Klebsiella pneumoniae ATCC 700603 ([4]; planktonic culture) [µg/mL],SMILES,MIC S. aureus ATCC 33591 (S. aureus ATCC 33591) [µg/mL],MIC C. albicans ATCC 10231 (C. albicans ATCC 10231) [µg/mL],MIC C. glabrata ATCC 15126 (C. glabrata ATCC 15126 [1]) [µg/mL],MIC Staphylococcus aureus ATCC 33591 [2] [µg/mL],"MIC Staphylococcus aureus ATCC 25923 ([3]; ATCC 25923, 24 h) [µg/mL]","MIC Klebsiella pneumoniae ATCC 700603 ([4]; ATCC 700603, 24 h)",MIC Pseudomonas aeruginosa ATCC 9027 [5] [µg/mL],MIC Enterococcus faecium ATCC 700221 [6] [µg/mL],MIC Klebsiella aerogenes ATCC 13048 [7],MIC Acinetobacter baumannii ATCC BAA 1605 [8] [µg/mL],MIC P. aeruginosa ATCC 9027 (P. aeruginosa ATCC 9027) [µg/mL],MIC C. glabrata ATCC 15126 (C. glabrata ATCC 15126 [9]) [µg/mL],HC50 [10] [µg/mL]
,,"CCCCCCCCCCCCCC(=O)N[C@@H](CCCNC(=N)N)C(=O)N[C@@H](CCCNC(=N)N)C(N)=O [Compound A4, C14-RR-NH2] (Myristoyl-Arg-Arg-NH2)",64,8,16,8,8,256 (−/−) µg/mL,32,8,256 (−/−) µg/mL,64,256,256,
,,CCCCCCCCCCCC(=O)N[C@@H](CCCNC(=N)N)C(=O)N[C@@H](CCCNC(=N)N)C(=O)NCCCC[C@H](NC(=O)[C@H](CCCNC(=N)N)NC(=O)[C@H](CCCNC(=N)N)NC(=O)CCCCCCCCCCC)C(N)=O [Compound B3] (Lauroyl-Arg-Arg-Lys([Arg-Arg-Lauroyl])-NH2),16,2,2,2,4,64 µg/mL,4,2,32 µg/mL,8,64,> 256,56.29 ± 6.50
,,CCCCCCC(CCCC)C(=O)N[C@@H](CCCNC(=N)N)C(=O)N[C@@H](CCCNC(=N)N)C(=O)NCCCC[C@H](NC(=O)[C@H](CCCNC(=N)N)NC(=O)[C@H](CCCNC(=N)N)NC(=O)C(CCCC)CCCCCC)C(N)=O (some centres unmarked) [Compound B7],8,8,16,0.5,1,32 µg/mL,4,1,16 µg/mL,32,128,64,>256
,,CCCCCCCCCC(=O)N[C@@H](CCCNC(=N)N)C(=O)N[C@@H](CCCNC(=N)N)C(=O)N[C@@H](CSSC[C@H](NC(=O)[C@H](CCCNC(=N)N)NC(=O)[C@H](CCCNC(=N)N)NC(=O)CCCCCCCCC)C(N)=O)C(N)=O [Compound C2] (I: Decanoyl-Arg-Arg-Cys-NH2 / II: Decanoyl-Arg-Arg-Cys-NH2; disulfide I:3-II:3),,4,8,1,2,>256 (−/−) µg/mL,8,2,128 µg/mL,16,,,>256
64,,CCCCCCCCCCCCCC(=O)N[C@@H](CCCNC(=N)N)C(=O)N[C@@H](CCCNC(=N)N)C(=O)N[C@@H](CSSC[C@H](NC(=O)[C@H](CCCNC(=N)N)NC(=O)[C@H](CCCNC(=N)N)NC(=O)CCCCCCCCCCCCC)C(N)=O)C(N)=O [Compound C4] (I: Myristoyl-Arg-Arg-Cys-NH2 / II: Myristoyl-Arg-Arg-Cys-NH2; disulfide I:3-II:3),,2,1,32,,>256 (−/−) µg/mL,64,8,128 µg/mL,32,,,20.89 ± 1.06
,64,CCCCCCCC(=O)N[C@@H](CCCC)C(=O)N[C@@H](CCCNC(=N)N)C(=O)N[C@@H](CCCNC(=N)N)C(=O)N[C@@H](CSSC[C@H](NC(=O)[C@H](CCCNC(=N)N)NC(=O)[C@H](CCCNC(=N)N)NC(=O)[C@H](CCCC)NC(=O)CCCCCCC)C(N)=O)C(N)=O [Compound C6] (I: Octanoyl-[Nle]RRC-NH2 / II: Octanoyl-[Nle]RRC-NH2; disulfide I:4-II:4),,16,16,2,2,,8,2,256 (−/−) µg/mL,32,,,>256
